Data reported in the NIST ThermoML archive (doi:10.1021/acs.jced.9b00399).
Numbers after ± are expanded uncertainties.

How the values were obtained:
[1] = Gas, isochoric method
[2] = xn = mol fraction of the nth substance listed; conditions: Gas, isochoric method, x1 = 0.6992

## [HH] [hydrogen]
[1]; 722.4 K, 20262 kPa
  mass density: 6.45 ± 0.059 kg/m3
[1]; 733.6 K, 20559 kPa
  mass density: 6.449 ± 0.059 kg/m3
[1]; 743.1 K, 20811 kPa
  mass density: 6.447 ± 0.059 kg/m3
[1]; 753.6 K, 21086 kPa
  mass density: 6.447 ± 0.054 kg/m3
[1]; 763.9 K, 21370 kPa
  mass density: 6.445 ± 0.057 kg/m3
[1]; 773.4 K, 21625 kPa
  mass density: 6.445 ± 0.058 kg/m3
[1]; 784.3 K, 21917 kPa
  mass density: 6.444 ± 0.058 kg/m3
[1]; 792.8 K, 22153 kPa
  mass density: 6.443 ± 0.058 kg/m3
[1]; 803.8 K, 22451 kPa
  mass density: 6.442 ± 0.058 kg/m3
[1]; 812.9 K, 22702 kPa
  mass density: 6.442 ± 0.056 kg/m3
[1]; 822.2 K, 22963 kPa
  mass density: 6.441 ± 0.056 kg/m3
[1]; 834.3 K, 23222 kPa
  mass density: 6.422 ± 0.054 kg/m3
[1]; 844.3 K, 23469 kPa
  mass density: 6.412 ± 0.056 kg/m3
[1]; 854.7 K, 23640 kPa
  mass density: 6.381 ± 0.058 kg/m3
[1]; 863.3 K, 23818 kPa
  mass density: 6.366 ± 0.057 kg/m3
[1]; 874.1 K, 24069 kPa
  mass density: 6.354 ± 0.053 kg/m3
[1]; 883.3 K, 24272 kPa
  mass density: 6.344 ± 0.054 kg/m3
[1]; 892.3 K, 24413 kPa
  mass density: 6.337 ± 0.054 kg/m3
[1]; 904.5 K, 24668 kPa
  mass density: 6.324 ± 0.056 kg/m3
[1]; 914.1 K, 24899 kPa
  mass density: 6.319 ± 0.054 kg/m3
[1]; 924 K, 25112 kPa
  mass density: 6.313 ± 0.058 kg/m3

## [HH] [hydrogen] + O=C=O
[2]; 673.4 K, 20652 kPa
  mass density: 50.77 ± 0.47 kg/m3
[2]; 683.6 K, 20986 kPa
  mass density: 50.78 ± 0.43 kg/m3
[2]; 693.5 K, 21304 kPa
  mass density: 50.79 ± 0.48 kg/m3
[2]; 703.3 K, 21638 kPa
  mass density: 50.85 ± 0.48 kg/m3
[2]; 713.9 K, 21981 kPa
  mass density: 50.87 ± 0.47 kg/m3
[2]; 723.3 K, 22282 kPa
  mass density: 50.87 ± 0.44 kg/m3
[2]; 733.9 K, 22610 kPa
  mass density: 50.86 ± 0.49 kg/m3
[2]; 743.9 K, 22909 kPa
  mass density: 50.82 ± 0.47 kg/m3
[2]; 753.6 K, 23216 kPa
  mass density: 50.82 ± 0.47 kg/m3

## N#N [nitrogen]
[1]; 727.3 K, 20352 kPa
  mass density: 86.58 ± 0.74 kg/m3
[1]; 805.8 K, 22603 kPa
  mass density: 86.28 ± 0.73 kg/m3
[1]; 874.6 K, 24580 kPa
  mass density: 86.14 ± 0.72 kg/m3
[1]; 927.1 K, 26090 kPa
  mass density: 86.03 ± 0.7 kg/m3

## O [water]
[1]; 724.1 K, 15981 kPa
  mass density: 58.3 ± 0.77 kg/m3
[1]; 773.1 K, 17804 kPa
  mass density: 58.58 ± 0.71 kg/m3
[1]; 826.1 K, 19727 kPa
  mass density: 58.95 ± 0.72 kg/m3
[1]; 877.1 K, 21161 kPa
  mass density: 58.02 ± 1.2 kg/m3
[1]; 927.1 K, 22542 kPa
  mass density: 57.4 ± 0.74 kg/m3
